Results reported in PMC5556108, “In vivo evaluation of radiotracers targeting the melanin-concentrating hormone receptor 1: [^11C]SNAP-7941 and [^18F]FE@SNAP reveal specific uptake in the ventricular system” (Scientific Reports, 2017).
Structures can show the parent of a compound that is named as a salt. Where two headings read alike, the source gives them in different places.

Legend:
hMCHR1 = target: T1, hMCHR1 (Homo sapiens, UniProt Q99705); test: Competitive binding studies: displacement of specific [125I]MCH binding on CHO-K1 cell membranes; conditions: for binding cooperativity (from Hill slope factor) / Hill slope factor: displacement of [125I]MCH; for binding cooperativity (from Hill slope factor): CHO-K1 cell membranes expressing hMCHR1
T1 construct: purchased PerkinElmer, Inc., Waltham, USA; host or cells: CHO-K1 cell membranes
T1 sequence (Q99705 whole entry): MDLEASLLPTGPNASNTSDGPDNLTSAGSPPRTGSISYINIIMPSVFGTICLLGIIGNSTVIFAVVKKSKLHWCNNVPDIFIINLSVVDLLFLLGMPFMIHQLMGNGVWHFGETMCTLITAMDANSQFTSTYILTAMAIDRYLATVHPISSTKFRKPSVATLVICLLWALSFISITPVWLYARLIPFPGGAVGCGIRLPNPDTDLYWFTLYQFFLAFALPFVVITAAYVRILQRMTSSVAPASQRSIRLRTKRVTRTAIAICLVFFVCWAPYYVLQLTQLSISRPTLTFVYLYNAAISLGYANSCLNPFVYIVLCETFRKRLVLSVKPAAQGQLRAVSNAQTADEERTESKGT
Procedure: Competitive binding studies were conducted on CHO-K1 cell membranes expressing the hMCHR1 (PerkinElmer, Inc., Waltham, USA). Briefly, cell membranes (10 µg/mL) were dissolved in 500 µL 50 mM Tris buffer (pH 7.4) (containing 10 mM MgCl2, 2 mM EDTA, 0.1% bacitracin and 0.2% BSA). […] All non-labelled compounds were initially dissolved in DMSO and diluted with deionized water to the final concentration, where the amount of DMSO never exceeded 5%. The membranes were incubated in vials at room temperature for 120 min. Subsequently, bound and free fractions of radioligand were separated by centrifugation at 40 000 × g for 20 min. The supernatants were removed into new vials and pellets were washed twice with 800 µL ice cold Tris buffer. The pellets were finally dissolved in 1300 µL Tris buffer and the radioactivity of both, the supernatant and the pellet, was measured in a Gamma Counter (2480 WIZARD[2], PerkinElmer, Waltham, MA, USA). The half-maximum inhibitory concentration (IC50) was determined using GraphPad Prism 6.0 (GraphPad Software, Inc., San Diego, CA, USA) and converted into the Ki using the Cheng Prusoff equation[38].

MCHR1 [1] = target: T2, MCHR1 (Rattus norvegicus, UniProt P97639); test: Ex-vivo brain uptake measured in the Gamma Counter; conditions: mean ± SEM
T2 construct: Small-animal PET/MRI brain scans in healthy rats evinced high radiotracer uptake in the entire ventricular system; from tissue; host or cells: brain (whole brain, ventricular system) of male Sprague-Dawley rats, in vivo / ex vivo
T2 sequence (P97639 whole entry): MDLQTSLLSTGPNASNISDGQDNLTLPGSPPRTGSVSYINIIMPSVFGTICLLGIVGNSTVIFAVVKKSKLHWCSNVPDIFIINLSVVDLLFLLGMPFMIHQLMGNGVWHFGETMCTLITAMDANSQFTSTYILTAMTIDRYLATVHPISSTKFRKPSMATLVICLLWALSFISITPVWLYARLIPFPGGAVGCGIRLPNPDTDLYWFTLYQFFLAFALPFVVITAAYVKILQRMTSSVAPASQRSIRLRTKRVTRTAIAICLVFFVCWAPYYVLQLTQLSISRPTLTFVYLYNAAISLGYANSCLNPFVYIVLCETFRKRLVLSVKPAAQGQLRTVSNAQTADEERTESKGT
Procedure: (§1) Anaesthetized rats were immobilized in a multimodal animal carrier unit (MACU; medres® – medical research GmbH, Cologne, Germany) and maintained at a body temperature of 37 °C throughout the whole experiment. Animals received either [^11C]SNAP-7941 or [^18F]FE@SNAP, followed by an injection of (±)-SNAP-7941 (15 mg/kg body weight, freshly dissolved in 400 µL; displacement condition; n = 3) or 400 µL of the respective solvent (vehicle condition; n = 3). The MCHR1 antagonists and the vehicle were administered either 15 min ([^11C]SNAP-7941) or 20 min ([^18F]FE@SNAP) after radiotracer injection as a bolus via the lateral tail vein. A stereotactic holder attached to the MACU was used to fix the head of the animals in a reliable and reproducible position within the whole imaging study. Experiments were initiated with a 7 minute cone beam attenuation CT (CBCT) of the brain (360 projections; binning 4 × 4; 80 kV; 500 µA; 200 ms exposure time) using a small-animal CT scanner (Siemens Inveon microSPECT/CT, Siemens Medical Solutions, Knoxville, USA). Subsequently the animals were positioned in the imaging chamber of a Siemens Inveon microPET scanner (Siemens Medical Solution, Knoxville, USA). [^11C]SNAP-7941 (75.85 ± 5.80 MBq; molar activity: 33.12 ± 25.73 GBq/µmol; radiochemical purity: >99%) or [^18F]FE@SNAP (44.12 ± 4.41 MBq; molar activity: 22.18 ± 9.72 GBq/µmol; radiochemical purity: >90%) was injected (200–800 µL) via the lateral tail vein and dynamic PET imaging was performed 45 min for the [^11C]-labeled radiotracer and 60 min for the [^18F]-labeled ligand. Immediately afterwards, T1-weighted high-resolution axial, coronary and sagittal brain MRI scans (2D FLASH; echo time: 3.85 ms; repetition time: 282 ms; flip angle: 30°; field of view: 35 × 35 mm; resolution: 68 × 68 µm; slice thickness: 0.4 mm) were performed using a Bruker BioSpec 94/30 USR small-animal MR system (Bruker BioSpin GmbH, Karlsruhe, Germany). At the end of the imaging study animals were sacrificed under anesthesia through an intravenous injection of pentobarbital sodium (Release® 300 mg/mL, WDT, Garbsen, Germany), brains were removed, weighed and subjected to radioactivity measurements in a Gamma Counter (2480 WIZARD[2], PerkinElmer, Waltham, MA, USA). Values were normalized to weight and dose and expressed as the percentage injected dose per gram of tissue (%ID/g).

[2] = tested on: P-glycoprotein (P-gp) and Breast Cancer Resistance Protein (BCRP); parameters: method as in PMID 23829932; conditions: due to binding to P-gp and BCRP; cited from earlier work
MCHR1 [3] = target: T2, MCHR1; test: Small-animal PET/CT/MRI brain imaging, radiotracer uptake (SUV) under baseline and displacement conditions; assay type: in vivo
Procedure: Twelve-weeks old male Sprague-Dawley rats (HIM:OFA, Himberg, Austria) weighing 389 ± 86 g were kept under controlled environmental conditions (22 ± 1 °C; 40–70% humidity; 12 hours light/dark cycle) with free access to water and standard laboratory animal diet (sniff R/M-H, sniff Spezialdiaeten GmbH, Soest, Germany). Prior to each experiment, the animals were placed into an induction chamber and anesthetized with 2.5% isoflurane. When unconscious, the animals were taken from the chamber and kept under anesthesia with 1.5–2.5% isoflurane provided via a mask during the whole experiment. Physiological parameters and the depth of anesthesia were monitored continuously. Administration of radioligands and MCHR1 antagonists were performed intravenously via the lateral tail vein. All procedures and protocols using animals have been approved by the Institutional Animal Care and Use Committee of the Medical University of Vienna, Austria, as well as by the Austrian Ministry of Science, Research and Economy (BMWFW-66.009/0029-WF/V/3b/2015). Every effort was made to minimize both, the suffering and the number of animals. All experimental procedures and protocols used in this study were performed in accordance with the relevant guidelines and regulations.
as §1
CT raw data was reconstructed with a Feldkamp algorithm using a Shepp-Logan filter followed by standard rat beam-hardening correction and noise reduction (matrix size: 1024 × 1024; effective pixel size: 97.56 µm). […]

[4] = parameters: method as in PMID 24106662; conditions: cited from earlier work
[5] = displacement of 0.1 nM [125I]MCH, CHO-K1 cell membranes expressing hMCHR1, Cheng Prusoff, mean ± SEM
[6] = displacement of 0.1 nM [125I]MCH, CHO-K1 cell membranes expressing hMCHR1, mean ± SEM, three independent experiments
[7] = CHO-K1 cell membranes expressing hMCHR1, mean ± SEM
[8] = group with displacement via (±)-SNAP-7941 (15 mg/kg)
[9] = i.v. tracer, before displacement, group displaced with 15 mg/kg (±)-SNAP-7941, mean ± SEM
[10] = i.v. tracer, before displacement, group displaced with vehicle, mean ± SEM
[11] = male, Sprague-Dawley, in vivo, iv
[12] = male, Sprague-Dawley, in vivo, iv, 15 mg/kg

Row | SMILES | Ki (hMCHR1; [5]) [nM] | IC50 (hMCHR1; [6]) [nM] | binding cooperativity (from Hill slope factor) (hMCHR1) | Hill slope factor (hMCHR1; [7]) | Ex-vivo brain uptake, normalized value (MCHR1 [1]; [8]) [%ID/g] | Ex-vivo brain uptake, normalized value (MCHR1 [1]; vehicle group) [%ID/g] | blood-brain-barrier penetration [2] | SUVbw whole brain, baseline (MCHR1 [3]; [9]) [g/mL] | SUVbw ventricular system, baseline (MCHR1 [3]; [10]) [g/mL] | SUVbw whole brain, baseline (MCHR1 [3]; [10]) [g/mL] | SUVbw ventricular system, baseline (MCHR1 [3]; [11]) [g/mL] | SUVbw ventricular system, displacement (MCHR1 [3]; [11]) [g/mL] | SUVbw whole brain, displacement (MCHR1 [3]; [11]) [g/mL] | SUVbw ventricular system, displacement (MCHR1 [3]; [12]) [g/mL] | SUVbw whole brain, displacement (MCHR1 [3]; [12]) [g/mL] | IC50 (hMCHR1) [nM] | Ki (hMCHR1) [nM] | metabolism [4]
1 | COCC1=C(C(=O)OCCF)[C@H](c2ccc(F)c(F)c2)N(C(=O)NCCCN2CCC(c3cccc(NC(C)=O)c3)CC2)C(=O)N1 [FE@SNAP, (+)-(2-Fluoroethyl)(4 S)-3-{[(3-{4-[3-(acetylamino)phenyl]-1-piperidinyl}propyl)amin]carbonyl}-4-(3,4-difluorophenyl)-6-(methoxymethyl)-2-oxo-1,2,3,4-tetra-hydro-5-pyrimidenecarboxylate] | 9.98 ± 1.12 | 14.3 ± 1.61 | no binding cooperativity | 1.30 ± 0.33 | – | – | – | – | – | – | – | – | – | – | – | – | – | –
2 | COCC1=C(C(=O)O[11CH3])[C@H](c2ccc(F)c(F)c2)N(C(=O)NCCCN2CCC(c3cccc(NC(C)=O)c3)CC2)C(=O)N1 [[^11C]SNAP-7941] | – | – | – | – | 0.015 ± 0.002 | 0.023 ± 0.002 | limited blood-brain-barrier penetration | 0.41 ± 0.03 | 0.65 ± 0.04 | 0.35 ± 0.03 | 0.64 ± 0.08 | 0.71 ± 0.04 | 0.34 ± 0.02 | 0.32 ± 0.04 | 0.31 ± 0.03 | – | – | –
3 | COCC1=C(C(=O)OC)[C@H](c2ccc(F)c(F)c2)N(C(=O)NCCCN2CCC(c3cccc(NC(C)=O)c3)CC2)C(=O)N1 [(+)-SNAP-7941, (+)-methyl(4 S)-3-{[(3-{4-[3-(acetylamino)phenyl]-1piperidinyl}propyl)amino]carbonyl}-4-(3,4-difluorophenyl)-6-(methoxymethyl)-2-oxo-1,2,3,4-tetra-hydro-5-pyrimidenecarboxylate hydrochloride] | – | – | strong positive cooperativity | 8.89 ± 1.59 | – | – | – | – | – | – | – | – | – | – | – | 7.7 ± 0.35 | 5.37 ± 0.25 | –
4 | COCC1=C(C(=O)OCC[18F])[C@H](c2ccc(F)c(F)c2)N(C(=O)NCCCN2CCC(c3cccc(NC(C)=O)c3)CC2)C(=O)N1 [[^18F]FE@SNAP] | – | – | – | – | 0.018 ± 0.003 | 0.020 ± 0.001 | – | 0.41 ± 0.01 | 0.72 ± 0.01 | 0.43 ± 0.02 | 0.69 ± 0.06 | 0.73 ± 0.02 | 0.44 ± 0.02 | 0.50 ± 0.04 | 0.41 ± 0.02 | – | – | fast metabolism
5 | COCC1=C(C(=O)OC)[C@H](c2ccc(F)c(F)c2)N(C(=O)NCCCN2CCC(c3cccc(NC(C)=O)c3)CC2)C(=O)N1 (racemic) [(±)-SNAP-7941] | 3.91 ± 0.74 | 5.61 ± 1.06 | no binding cooperativity | 2.66 ± 0.39 | – | – | – | – | – | – | – | – | – | – | – | – | – | –
